Literature values, collected in US7495029B2, “Prodrugs of (2R)-2-propyloctanoic acid for the treatment of stroke” (Merck & Co., Inc, priority 2004, dated 2009).

Legend:
lipid peroxidation = details: in vitro; Kogure et al, Life Sciences 2002
[1] = system: vascular endothelial cell; details: in vitro; Kogure et al, Life Sciences 2002
rat stroke models = details: Kogure et al, Life Sciences 2002
[2] = system: gerbils subjected to a transient global ischemia event; details: Jalil et al, Brain Research 2002
mice = details: Tunctan et al, Pharmacological Res 2003

| Compound | lipid peroxidation (lipid peroxidation) | vascular endothelial cell damage [1] | development of cerebral edema, cerebral infarction, neurological symptoms and delayed neuronal death (rat stroke models) | neuroprotection against hippocampal damage [2] | endotoxin-induced mortality (mice) |
| --- | --- | --- | --- | --- | --- |
| Edaravone | inhibit lipid peroxidation | inhibit | inhibit the development of cerebral edema, cerebral infarction, neurological symptoms and delayed neuronal death |  |  |
| CC1(C)OC(=O)C(c2cccc(F)c2)=C1c1ccc(S(C)(=O)=O)cc1 [DFU] |  |  |  | neuroprotective against hippocampal damage | dose dependently reduce endotoxin-induced mortality |
